The values below come from patent US6500823B1, “Unsaturated hydroximic acid derivatives as per abstract inhibitors” (N-Gene Research Laboratories, Inc., priority 1998, dated 2002).

Assay [1] deals with T1, poly-ADP-ribose polymerase from rat liver (Rattus norvegicus, UniProt P27008).
T1 construct: We have isolated the poly-ADP-ribose polymerase from rat liver; from tissue; host or cells: rat liver
Put plainly: In vitro PARP inhibition on isolated enzyme. It counts as biochemical. The conditions noted are these: for IC50: isolated rat liver enzyme, ± SEM from four parallel measurements, read-out: PARP I0.5 mg/l (converted). As for the experimental part:
We have isolated the poly-ADP-ribose polymerase from rat liver according to the article Shah.G. M.,Anal Biochem, 227, 1-13 (1995).
We have determined the PARP activation in 130 μl of reaction mixture, which consists of: 100 mM Tris-HCl puffer, pH 8.0, 10 mM MgCl2, 10% glycerol, 1.5 mM DTT, 100 μg of (32P), or (3H), NAD+, 10 μg of histone. We have stopped the reaction after 10 minutes with 8% perchloric acid and seperated the protein through centrifugation (10 minutes, 10.000×g). We have washed the precipitate with 8% perchloric acid, and we measured the radioactivity connected to the protein with scintillation counter.

Assay [2] deals with mouse HSP-70 gene promoter in mouse fibroblast L929 cells. Put plainly: HSP-70 promoter-luciferase reporter gene assay. It counts as cell-based. The conditions noted are these: Control = 100; 10 μl of 10^-2 M solution to 1 ml culture, 30 min, 1 hour regeneration. The text has this:
The activity of HSP-70 was studied by reporter gene assay forming a DNA hybrid. To the promoter sequence of HSP-70 encoding the heat shock protein was fused a gene of a protein that can be detected by a well-measurable enzyme activity. Biotechnological processes were used. As reporter gene luciferase enzyme was employed, the activity of which can be well determined by luminescence measurement. If the promoter of the gene of the luciferase enzyme is substituted by the promoter of the HSP-70 gene, then the change in the activity of the luciferase enzyme i.e. the change of the frequency of the transcription from the gene correlates with the frequency of the transcription of the HSP-70 gene that proceeds in the given circumstances. In this way, if a substance or process influences the expression of the HJSP-70 gene, the effect can be studied through the measurement of the luciferase enzyme activity. The effect of the substances to be tested on the HSP-70 expression was studied in such an experimental system.
A double-stranded DNA circular molecule i.e. a plasmid containing the HSP-70 reporter gene was constructed to perform the measurements. An almost 600 bp long sequence of the mouse HSP-70 gene promoter (5′ direction from the start site of the gene) was fused to the coding sequence of the luciferase gene originated from Photymus pyralis. The applied promoter sequence contained several protein binding sites facilitating the expression of the HSP-70 gene. The HSP promoter-luciferase heterologous gene construct was built in a pBR based plasmid vector that can be selected for neomycin. This HSP-70-luciferase plasmid was transfected into mouse fibroblast L929 cells. The assay was performed as follows.
The HSP-70-luc plasmid containing L929 cells are grown in DMEM (Dulbecco's Modified Eagle's Medium) medium supplemented with 5% FCS (Fetal Calf Serum). 10^4 cells are plated in the wells of a 24-well Costar cell culture plate in 1 ml of culture medium. Test substances are dissolved in PBS (Phosphate Buffered Saline) in 10^−2 M concentration. After attachment of the cells (3-4 hours after plating) 10 μl of the solution are given to the cultures and cells are incubated for 30 min. at 37° C. in a CO2 thermostat. Culture medium is then changed for fresh one (without test substance) and cells are allowed to regenerate for 1 hour at 37° C., then once washed with PBS. After removal of PBS 40 μl of 1× lysis buffer are added to the cells, and the samples are kept on ice for 30 minutes. Then the samples are transferred into Eppendorf vials and centrifuged at 14000 rpm for 20 min at 4° C. 5 μl of the supernatant is added to 25 μl of luciferase assay buffer and the luminescence of the samples is measured for 25 seconds in a luminometer.

A further assay has as its system male SPRD rats. The assay is described as follows: Reperfusion induced arrhythmia after LAD occlusion, survival rate. It counts as in vivo, rat. The conditions noted are these: for responders at 5 mg/kg: Rattus norvegicus, iv, control 15.38, read-out: % SURV; for effect on survival of reperfusion arrhythmia, in words: compared with Example 2 (100% survival). As for the experimental part:
Experiments were carried out in male SPRD rats (acceptable body weight range: 300-350 g). The animals were anesthetized with sodium pentobarbital (Nembutal®: 60 mg/kg intraperitoneally) and remained breathing spontaneously. The animals were ventilated with respirator (MTA Kutesz) by using trachea cannule which was inserted after tracheotomy. The standard lead of the ECG II is monitored. Right femoral artery was catheterized and connected to a pressure transducer (BPR-01, Experimetria, Hungary), a preamplifier and pulsotachometer (HG-M, Experimetria, Hungary) for arterial blood pressure and heart rate measurement, respectively. The external jugular vein was cannulated for drug administration. After thoracotomy a silk (braided, coated 4-0) was placed under the left anterior coronary (LAD) artery. After a few minutes' stabilization period, a 5 min occlusion of LAD artery was applied, followed by a 10 min reperfusion period. The survival rate was evaluated.

The subject of another assay is HepG2 cells. Put plainly: LDH enzyme activity in hypoxia exposed HepG2 cells. As to conditions: Homo sapiens, 30 μg/ml, hypoxia 1% O2 24 hours, Hypoxic control = 100, read-out: Relative LDH content, %. It is filed as cell-based. As for the experimental part: HepG2 cell were cultured in DMEM medium supplemented with 10% FCS in 5% CO2 containing air at 37° C. 10^5 cells were plated in the wells of Costar 24-well culture plates in 1 ml medium. On the following day, cells were treated with the test compounds in a concentration of 30 μg/ml, then cells were exposed to hypoxia treatment (1% O2, 5% CO2 in nitrogen gas) for 24 hours. A part of the control cultures were treated with water used as the solvent, and another part of them was not exposed to hypoxia. At the end of the hypoxic treatment, medium was removed and cells were washed twice with cold PBS. Cells lysates were prepared in 0.05% Triton X-100 containing phosphate buffer (0.05 M) and after centrifugation (2 min. […]) the LDH activity of the supernatant was determined on the basis of NADH consumption in the presence of sodium piruvate substrate.
The LDH activity of the cells treated with the test compounds and compared to the activity of the control exposed to hypoxia is shown in Table 6.

Assay [3] deals with Moloney murine leukemia virus reverse transcriptase (Moloney murine leukemia virus, UniProt P03355). Put plainly: Reverse transcriptase inhibition, (3H)dTTP incorporation. It counts as biochemical. The conditions noted are these: read-out: Enzyme inhibition, %. As for the experimental part: The compounds may be sorted into group of the non-nucleoside type reverse transcriptase inhibitors. Tests were performed on Moloney murine leukemia virus reverse transcriptase that is considered as a good model of the HIV reverse transcriptase enzyme. The experimental assembly was the following.
The assay measures the incorporation of (3H)dTTP into cDNA using poly(dA) template and oligo(dT)12-18 primer. The reaction was carried out in 20 μl volume.
The reaction was started by addition of 5U reverse transcriptase
The reaction mixture was incubated for 40 min at 37° C. Then 15 μl of the reaction mixture was loaded on Whatman DE81 filter discs and filters were washed sequentially with 5% disodium hidrogen phosphate buffer, with water and with 96% (v/v) ethanol. After drying, the filters were placed into scintillation cocktail (OptiPhase, HiSafe, Wallac) and the radioactivity was measured in a Packard Tri-Carb 2200 scintillation counter.
Two compounds with known inhibitory activity were used in the experiments as positive control. AZT is a nucleoside analog while the compound Nevirapin is a non-nucleoside type inhibitor. Nevirapine binds to the so called benzodiazepine binding site of the enzyme. The applied concentrations of the test compounds were in the 0.2-2 μg/ml concentration range.

Counter-ions that a name gives are not always drawn.

T1 sequence (P27008 whole entry): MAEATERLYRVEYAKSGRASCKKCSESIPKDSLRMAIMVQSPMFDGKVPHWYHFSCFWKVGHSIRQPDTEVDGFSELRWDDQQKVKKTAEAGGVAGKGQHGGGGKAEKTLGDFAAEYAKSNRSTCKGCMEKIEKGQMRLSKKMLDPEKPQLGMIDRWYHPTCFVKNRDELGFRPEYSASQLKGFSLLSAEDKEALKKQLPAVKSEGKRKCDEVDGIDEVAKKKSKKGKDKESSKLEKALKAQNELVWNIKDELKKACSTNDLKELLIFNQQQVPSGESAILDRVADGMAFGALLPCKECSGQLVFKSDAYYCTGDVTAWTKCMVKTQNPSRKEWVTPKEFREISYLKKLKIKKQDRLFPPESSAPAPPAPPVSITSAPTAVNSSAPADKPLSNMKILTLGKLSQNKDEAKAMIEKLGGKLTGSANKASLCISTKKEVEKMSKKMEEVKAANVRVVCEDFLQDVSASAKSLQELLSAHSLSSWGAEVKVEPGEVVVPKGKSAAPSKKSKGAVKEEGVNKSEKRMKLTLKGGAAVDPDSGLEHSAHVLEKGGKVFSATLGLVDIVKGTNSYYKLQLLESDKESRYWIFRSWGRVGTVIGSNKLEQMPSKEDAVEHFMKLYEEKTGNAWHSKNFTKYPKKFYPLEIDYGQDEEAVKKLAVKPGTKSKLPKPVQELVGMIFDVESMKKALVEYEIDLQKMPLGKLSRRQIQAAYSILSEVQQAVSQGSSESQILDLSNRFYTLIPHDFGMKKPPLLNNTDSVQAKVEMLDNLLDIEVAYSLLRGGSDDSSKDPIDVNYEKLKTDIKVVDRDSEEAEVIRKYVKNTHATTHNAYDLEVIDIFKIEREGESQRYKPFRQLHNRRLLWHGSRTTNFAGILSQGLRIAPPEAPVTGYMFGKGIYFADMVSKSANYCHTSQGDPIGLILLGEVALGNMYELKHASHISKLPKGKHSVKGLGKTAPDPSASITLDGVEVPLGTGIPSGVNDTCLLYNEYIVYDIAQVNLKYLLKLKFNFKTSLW

As to `CC(C)(C)NCC(O)CON=C(N)C=Cc1ccccc1` (stereo not drawn) [Example 6, O-(3-t.Buthylamino-2-hydroxy-propyl)-cinnamic Acid Amidoxime], the IC50 in assay [1] was 27.5 µM. Besides, in assay [2], the “Activity (HSP-70 promoter luciferase)” value amounted to 302.

As for `NC(C=Cc1ccccc1)=NOCC(O)CN1CCOCC1` (stereo not drawn) [Example 7, O-(3-Morpholino-2-hydroxy-propyl)-cinnamic Acid Amidoxime], the IC50 in assay [1] was 22.9 µM. In the assay on male SPRD rats, the responders at 5 mg/kg was 42%. For the same compound, the activity at 30 µg/mL with HepG2 cells turned out to be 141%.

As for `COc1ccc(C=CC(N)=NOCC(O)CNC(C)(C)C)cc1OC` (stereo not drawn) [Example 8, O-(3-t.Butylamino-2-hydroxy-propyl)-3,4-dimethoxycinnamic Acid Amidoxime Dihydrochloride], the IC50 in assay [1] is 28.5 µM. Besides, the responders at 5 mg/kg with male SPRD rats came out at 37.5%. Besides, the activity at 30 µg/mL with HepG2 cells turned out to be 116%.

Regarding `COc1ccc(C=CC(N)=NOCC(O)CN2CCOCC2)cc1OC` (stereo not drawn) [Example 9, O-(3-Morpholino-2-hydroxy-propyl-3,4-dimethoxycinnamic Acid Amidoxime Hydrochloride], in assay [1], the IC50 is 35.6 µM.

For `NC(C=Cc1cccnc1)=NOCC(O)CN1CCOCC1` (stereo not drawn) [Example 10, O-(3-Morpholino-2-hydroxy-propyl)-3-(3-pyridyl)-acrylic Acid Amidoxime Hydrochloride], in assay [1], the IC50 was 55.5 µM.

For the compound `NC(C=Cc1ccccc1)=NOCC(O)CN1CCc2ccccc2C1` (stereo not drawn) [Example 11, O-[3-(1,2,3,4-Tetrahydro-2-isoquinolyl)-2-hydroxy-propyl)]cinnamic Acid Amidoxime Dihydrochloride], the IC50 in assay [1] was 51.2 µM. The responders at 5 mg/kg with male SPRD rats was 20%. In the assay on HepG2 cells, the activity at 30 µg/mL came to 124%.

Regarding `COc1ccc(C=CC(N)=NOCC(O)CN2CCc3ccccc3C2)cc1OC` (stereo not drawn) [Example 12, O-[3-(1,2,3,4-Tetrahydro-2-isoquinolyl)-2-hydroxy-propyl]-3,4-dimethoxy-cinnamic Acid Amidoxime Dihydrochloride], in assay [1], the IC50 was 19.4 µM.

Consider `NC(C=Cc1cccnc1)=NOCC(O)CN1CCc2ccccc2C1` (stereo not drawn) [Example 13, O-(3-(1,2,3,4-Tetrahydro-2-isoquinolyl)-2-hydroxy-propyl)-3-(3-pyridyl) Acrylic Acid Amidoxime Dihydrochloride], for which the IC50 in assay [1] is 34 µM. For the same compound, the “Activity (HSP-70 promoter luciferase)” value in assay [2] is 156.

Turning to `CC(C)(C)NCC(O)CON=C(N)C=Cc1cccnc1` (stereo not drawn) [Example 14, O-(3-t.Buthylamino-2-hydroxy-propyl)-3-(3-pyridyl)acrylic Acid Amidoxime Dihydrochloride], in assay [1], the IC50 was 44.5 µM. For the same compound, the responders at 5 mg/kg in the assay with male SPRD rats turned out to be 43%.

Regarding `NC(C=Cc1ccccc1)=NOCC(O)CN1CCCC1` (stereo not drawn) [Example 15, O-3-Pyrrolidino-2-hydroxy-propyl) Cinnamic Acid Amidoxime dihydrochloride], the IC50 in assay [1] is 65.7 µM. In addition, the “Activity (HSP-70 promoter luciferase)” value in assay [2] is reported as 115.

On to `COc1ccc(C=CC(N)=NOCC(O)CN2CCCC2)cc1OC` (stereo not drawn) [Example 16, O-(3-Pyrrolidino-2-hydroxy-propyl)-3,4-dimethoxycinnamic Acid Amidoxime Dihydrochloride], for which the IC50 in assay [1] was 51.5 µM. Also, the activity at 30 µg/mL in the assay on HepG2 cells is 120%.

Regarding `NC(C=Cc1cccnc1)=NOCC(O)CN1CCCC1` (stereo not drawn) [Example 17, O-(3-Pyrrolidino-2-hydroxy-propyl)-3-(3-pyridyl)acrylic Acid Amidoxime Hydrochloride], the IC50 in assay [1] was 51.7 µM. Also, in the assay with HepG2 cells, the activity at 30 µg/mL came to 118%.

With `COc1ccc(C=CC(N)=NOCC(O)CN2CCCCC2)cc1OC` (stereo not drawn) [Example 18, O-(3-Piperidino-2-hydroxy-propyl)-3,4-dimethoxycinnamic Acid Amidoxime], the IC50 in assay [1] was 93.8 µM. Also, in the assay on male SPRD rats, the responders at 5 mg/kg stood at 67% and the “effect on survival of reperfusion arrhythmia, in words” value is recorded as “similarly outstanding effect”.

For the compound `NC(C=C1CCCCC1)=NOCC(O)CN1CCCCC1` (stereo not drawn) [Example 19, O-(3-Piperidino-2-hydroxy-propyl)cyclohexyldene Acetamidoxime], the “PARP inhibitor classification in words” value in assay [1] (conclusion on Table 1) is listed as “very poor PARP inhibitor”. The IC50 in assay [1] is 609 µM.

Regarding `OC(CON=C(Cl)C=Cc1ccccc1)CN1CCCC1` (stereo not drawn) [Example 26, N-(3-Pyrrolidino-2-hydroxy-propoxy)-3-phenyl Acrylimidoyl Chloride], the activity at 30 µg/mL in the assay with HepG2 cells was 112%.

Regarding `CC(C)(C)NCC(O)CON=C(Cl)C=Cc1cccnc1` (stereo not drawn) [Example 31, N-(3-t.Butylamino-2-hydroxy-propoxy)-3-(3 pyridyl)acrylimidoyl Chloride Hydrogen Maleate], the IC50 in assay [1] was 19.2 µM.

In the case of `ClC(C=Cc1cccnc1)=NOCCCN1CCCCC1.O=C(O)/C=C\C(=O)O` [Example 32, N-(3-Piperidino-propoxy)-3-(3-pyridyl)acrylimidoyl Chloride Hydrogen Maleate], in the assay on male SPRD rats, the responders at 5 mg/kg was determined as 71.4% and the “effect on survival of reperfusion arrhythmia, in words” value is listed as “similarly outstanding effect”.

On to `OC(CON=C(Cl)C=Cc1cccnc1)CN1CCOCC1` (stereo not drawn) [Example 33, N-(3-Morpholino-2-hydroxy-propoxy)-3-(3-pyridyl)acrylimidoyl Chloride Hydrogen Maleate], for which the IC50 in assay [1] was 15.8 µM.

Take `Cc1ccnc2c1NC(=O)c1cccnc1N2C1CC1` [Nevirapin, reference compound]: the inhibition at 0.2 µg/mL in assay [3] (concentration 0.2 μg/ml) was found to be 21%. Moreover, the inhibition at 2 µg/mL in assay [3] (concentration 2 μg/ml) was 26%.
